Reference: ChEMBL document CHEMBL1133965, “Total synthesis of Calebin-A, preparation of its analogues, and their neuronal cell protectivity against beta-amyloid insult” (2001)
≈ marks a conversion by molar mass, not a printed value.

Columns and labels:
[1] = system: PC-12; test: Evaluated for neuronal cell protectivity against beta-amyloid (25,35) insult towards PC12 rat pheochromocytoma cell; No protection; format: functional
[2] = system: IMR-32; test: (§1) Evaluated for neuronal cell protectivity against beta-amyloid (25,35) insult towards IMR-32 human neuroblastoma cell; No protection; format: functional
[3] = system: IMR-32; test: Evaluated for neuronal cell protectivity against beta-amyloid (25,35) insult towards IMR-32 human neuroblastoma cell; format: functional; conditions: read-out: ED50 (the source's name)
[4] = system: PC-12; test: Evaluated for neuronal cell protectivity against beta-amyloid (25,35) insult towards PC12 rat pheochromocytoma cell; format: functional; conditions: read-out: ED50 (the source's name)
[5] = system: PC-12; test: Evaluated for neuronal cell protectivity against beta-amyloid (25,35) insult towards PC12 rat pheochromocytoma cell
[6] = system: IMR-32; test: as §1; format: functional, cell-based

| Molecule | ED50 [1] | ED50 [2] | further results |
| --- | --- | --- | --- |
| COc1ccc(/C=C/C(=O)OCC(=O)/C=C/c2ccc(O)c(OC)c2)cc1 | No protection | No protection |  |
| COc1cc(/C=C/C(=O)COC(=O)/C=C/c2ccc(C)cc2)ccc1O | No protection | No protection |  |
| COc1cc(/C=C/C(=O)COC(=O)/C=C/c2ccccc2)ccc1O | No protection | No protection |  |
| VITAMIN E | No protection | No protection |  |
| COc1cc(/C=C/C(=O)COC(=O)/C=C/c2cccc(O)c2)ccc1O |  |  | EC50 [3]: 15.8 µg/mL (≈ 44.6 µM); EC50 [4]: 13.2 µg/mL (≈ 37.3 µM) |
| COc1cc(/C=C/C(=O)COC(=O)/C=C/c2ccc3c(c2)OCO3)ccc1O | No protection | No protection |  |
| COc1cc(/C=C/C(=O)COC(=O)/C=C/c2ccc(Cl)cc2)ccc1O | No protection | No protection |  |
| COc1cc(/C=C/C(=O)COC(=O)/C=C/c2ccc(O)cc2)ccc1O |  |  | EC50 ([2]; read-out: ED50 (the source's name)): 1.2 µg/mL (≈ 3.39 µM); ED50 [5]: 0.7 µg/mL (≈ 1.98 µM) |
| COc1cc(/C=C/C(=O)COC(=O)/C=C/c2cccc(OC(C)=O)c2)ccc1O | No protection | No protection |  |
| COc1cccc(/C=C/C(=O)OCC(=O)/C=C/c2ccc(O)c(OC)c2)c1 | No protection | No protection |  |
| COc1cc(/C=C/C(=O)CC(=O)/C=C/c2ccc(O)c(OC)c2)ccc1O [CURCUMIN] |  |  | EC50 [3]: 7.4 µg/mL (≈ 20.1 µM); EC50 [4]: 7.1 µg/mL (≈ 19.3 µM) |
| COc1cc(/C=C/C(=O)COC(=O)/C=C/c2ccc(OC(C)=O)cc2)ccc1O | No protection | No protection |  |
| COc1cc(/C=C/C(=O)COC(=O)/C=C/c2ccc(Br)cc2)ccc1O | No protection | No protection |  |
| COc1cc(/C=C/C(=O)COC(=O)/C=C/c2ccc(OC(C)=O)c(OC(C)=O)c2)ccc1O | No protection |  | ED50 [6]: No protection |
| COc1cc(/C=C/C(=O)COC(=O)/C=C/c2ccc(O)c(O)c2)ccc1O |  |  | EC50 [3]: 7.9 µg/mL (≈ 21.3 µM); EC50 [4]: 7.3 µg/mL (≈ 19.7 µM) |
| COc1cc(/C=C/C(=O)COC(=O)/C=C/c2ccc(O)c(OC)c2)ccc1O [CALEBI A] |  |  | EC50 [3]: 1.4 µg/mL (≈ 3.64 µM); EC50 [4]: 1 µg/mL (≈ 2.6 µM) |
